Results as given in US7939520B2, “Aminoazacyclyl-3-sulfonylindazoles as 5-hydroxytryptamine-6 ligands” (Wyeth LLC, priority 2007, dated 2011).
Like-named read-outs stand apart in the source and are kept apart here.

Biological target: T1, human cloned 5-HT6 receptors (Homo sapiens, UniProt P50406)
T1 construct: expressed in transfected cells; host or cells: HeLa cells
Assay: 5-HT6 binding affinity, [3H]-LSD displacement on membranes of Hela cells

[1] = [3H]-LSD 3.0 nM, Hela cell membranes, 120 min, room temperature, read-out: 5-HT6 Binding Ki

T1 sequence (P50406 whole entry): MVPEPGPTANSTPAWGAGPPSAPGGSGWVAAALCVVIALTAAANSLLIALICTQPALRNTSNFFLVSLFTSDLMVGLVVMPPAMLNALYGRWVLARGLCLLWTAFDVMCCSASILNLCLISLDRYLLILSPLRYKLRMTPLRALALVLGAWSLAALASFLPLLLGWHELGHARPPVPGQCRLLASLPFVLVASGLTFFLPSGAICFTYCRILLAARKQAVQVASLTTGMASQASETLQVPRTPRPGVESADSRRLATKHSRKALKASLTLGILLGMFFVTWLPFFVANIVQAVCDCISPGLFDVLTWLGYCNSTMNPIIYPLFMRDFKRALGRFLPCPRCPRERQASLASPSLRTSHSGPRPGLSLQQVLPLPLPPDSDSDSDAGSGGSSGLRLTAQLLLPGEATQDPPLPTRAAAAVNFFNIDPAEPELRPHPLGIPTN

Structure (SMILES): CC(C)Cn1nc(S(=O)(=O)c2cccc3ccccc23)c2cc(N3CC[C@@H](N)C3)ccc21 [Example 17, (R)-1-(1-isobutyl-3-(naphthalen-1-ylsulfonyl)-1H-indazol-5-yl)pyrrolidin-3-amine]
- Ki (read-out: 5-HT6 Binding Ki): 0.0369 µM

Structure (SMILES): Cn1nc(S(=O)(=O)c2cccc3ccccc23)c2cc(N3CC[C@@H](N)C3)ccc21 [Example 15, (3R)-1-[1-methyl-3-(naphthalen-1-ylsulfonyl)-1H-indazol-5-yl]pyrrolidin-3-amine]
- Ki (read-out: 5-HT6 Binding Ki): 0.0211 µM

Structure (SMILES): CC(C)n1nc(S(=O)(=O)c2cccc3ccccc23)c2cc(N3CC[C@@H](N)C3)ccc21 [Example 16, (R)-1-(1-isopropyl-3-(naphthalen-1-ylsulfonyl)-1H-indazol-5-yl)pyrrolidin-3-amine]
- Ki [1]: 0.0137 µM

Structure (SMILES): CC(C)Cn1nc2ccc(N3CC[C@H](N)C3)cc2c1S(=O)(=O)c1cccc2ccccc12 [Example 20]
- Ki: 0.0758 µM

Structure (SMILES): NC1CCN(c2ccc3[nH]nc(S(=O)(=O)c4cccc(Cl)c4)c3c2)CC1 [Example 5, 1-{3-[(3-chlorophenyl)sulfonyl]-1H-indazol-5-yl}piperidin-4-amine]
- Ki (read-out: 5-HT6 Binding Ki): 0.008 µM

Structure (SMILES): Cn1nc2ccc(N3CC[C@H](N)C3)cc2c1S(=O)(=O)c1cccc2ccccc12 [Example 18]
- Ki: 0.0543 µM

Structure (SMILES): CN(C)[C@@H]1CCN(c2ccc3[nH]nc(S(=O)(=O)c4cccc5ccccc45)c3c2)C1 [Example 12, (R)—N,N-dimethyl-1-(3-(naphthalen-1-ylsulfonyl)-1H-indazol-5-yl)pyrrolidin-3-amine]
- Ki [1]: 0.0011 µM

Structure (SMILES): NC1CN(c2ccc3[nH]nc(S(=O)(=O)c4cccc5ccccc45)c3c2)C1 [Example 8, 1-[3-(1-naphthylsulfonyl)-1H-indazol-5-yl]azetidin-3-amine]
- Ki [1]: 0.0035 µM

Structure (SMILES): NC1CN(c2ccc3[nH]nc(S(=O)(=O)c4ccccc4)c3c2)C1 [Example 14, 1-(3-(phenylsulfonyl)-1H-indazol-5-yl)azetidin-3-amine]
- Ki [1]: 0.0011 µM

Structure (SMILES): N[C@@H]1CCN(c2ccc3[nH]nc(S(=O)(=O)c4ccccc4)c3c2)C1 [Example 11, (3R)-1-(3-phenylsulfonyl-1H-indazol-5-yl)pyrrolidin-3-amine]
- Ki [1]: 0.146 µM

Structure (SMILES): CN(C)[C@H]1CCN(c2ccc3[nH]nc(S(=O)(=O)c4cccc5ccccc45)c3c2)C1 [Example 13, (S)—N,N-dimethyl-1-(3-(naphthalen-1-ylsulfonyl)-1H-indazol-5-yl)pyrrolidin-3-amine]
- Ki [1]: 0.05 µM

Structure (SMILES): CC(C)n1nc2ccc(N3CC[C@H](N)C3)cc2c1S(=O)(=O)c1cccc2ccccc12 [Example 19]
- Ki: 0.0487 µM

Structure (SMILES): N[C@H]1CCN(c2ccc3[nH]nc(S(=O)(=O)c4ccccc4)c3c2)C1 [Example 10, (3S)-1-(3-phenylsulfonyl-1H-indazol-5-yl)pyrrolidin-3-amine]
- Ki [1]: 0.131 µM
